Test results as given in the supplement of paper PMC11451515.

Tested on: P12-Ichikawa
Test: cell viability relative to DMSO control; higher = less cytotoxic
Conditions: 48 h
Procedure, shortened: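 Viability, reported as a per-plate percentage of DMSO wells with cell-free wells as background, came from CellTiter-Glo One luminescence. Reading took place after 48 h at 37°C. Before that, NOMO1 or SEM (500 cells/well) or P12-Ichikawa (1000 cells/well) leukemia cells, adapted for at least four passages in each medium, were seeded in 1536-well plates (5 μl) and pin-dosed with library compounds in DMSO, 47 μM to 0.79 nM over 11 threefold points.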

[1] = HPLM + 10% dialyzed FBS, 0.000781 µM
[2] = HPLM + 10% dialyzed FBS, 0.00234 µM
[3] = HPLM + 10% dialyzed FBS, 0.00702 µM
[4] = HPLM + 10% dialyzed FBS, 0.0211 µM
[5] = HPLM + 10% dialyzed FBS, 0.0632 µM
[6] = HPLM + 10% dialyzed FBS, 0.19 µM
[7] = HPLM + 10% dialyzed FBS, 0.569 µM
[8] = HPLM + 10% dialyzed FBS, 1.71 µM
[9] = HPLM + 10% dialyzed FBS, 5.12 µM
[10] = HPLM + 10% dialyzed FBS, 15.4 µM
[11] = HPLM + 10% dialyzed FBS, 46.1 µM
[12] = RPMI 5 mM glucose + 10% FBS, 0.000781 µM
[13] = RPMI 5 mM glucose + 10% FBS, 0.00234 µM
[14] = RPMI 5 mM glucose + 10% FBS, 0.00702 µM
[15] = RPMI 5 mM glucose + 10% FBS, 0.0211 µM
[16] = RPMI 5 mM glucose + 10% FBS, 0.0632 µM
[17] = RPMI 5 mM glucose + 10% FBS, 0.19 µM
[18] = RPMI 5 mM glucose + 10% FBS, 0.569 µM
[19] = RPMI 5 mM glucose + 10% FBS, 1.71 µM
[20] = RPMI 5 mM glucose + 10% FBS, 5.12 µM
[21] = RPMI 5 mM glucose + 10% FBS, 15.4 µM
[22] = RPMI 5 mM glucose + 10% FBS, 46.1 µM
[23] = RPMI 5 mM glucose + 10% dialyzed FBS, 0.000781 µM
[24] = RPMI 5 mM glucose + 10% dialyzed FBS, 0.00234 µM
[25] = RPMI 5 mM glucose + 10% dialyzed FBS, 0.00702 µM
[26] = RPMI 5 mM glucose + 10% dialyzed FBS, 0.0211 µM
[27] = RPMI 5 mM glucose + 10% dialyzed FBS, 0.0632 µM
[28] = RPMI 5 mM glucose + 10% dialyzed FBS, 0.19 µM
[29] = RPMI 5 mM glucose + 10% dialyzed FBS, 0.569 µM
[30] = RPMI 5 mM glucose + 10% dialyzed FBS, 1.71 µM
[31] = RPMI 5 mM glucose + 10% dialyzed FBS, 5.12 µM
[32] = RPMI 5 mM glucose + 10% dialyzed FBS, 15.4 µM
[33] = RPMI 5 mM glucose + 10% dialyzed FBS, 46.1 µM

Row | Compound | cell viability [1] [%] | cell viability [2] [%] | cell viability [3] [%] | cell viability [4] [%] | cell viability [5] [%] | cell viability [6] [%] | cell viability [7] [%] | cell viability [8] [%] | cell viability [9] [%] | cell viability [10] [%] | cell viability [11] [%] | cell viability [12] [%] | cell viability [13] [%] | cell viability [14] [%] | cell viability [15] [%] | cell viability [16] [%] | cell viability [17] [%] | cell viability [18] [%] | cell viability [19] [%] | cell viability [20] [%] | cell viability [21] [%] | cell viability [22] [%] | cell viability [23] [%] | cell viability [24] [%] | cell viability [25] [%] | cell viability [26] [%] | cell viability [27] [%] | cell viability [28] [%] | cell viability [29] [%] | cell viability [30] [%] | cell viability [31] [%] | cell viability [32] [%] | cell viability [33] [%]
1 | CN(C)c1ccc(Nc2nc(N)n(C(=O)c3c(F)cccc3F)n2)cc1 | 106 | 115 | 125 | 79.5 | 122 | 127 | 121 | 117 | 114 | 29.1 | 88.2 | 122 | 116 | 115 | 70 | 132 | 126 | 130 | 137 | 114 | 28.8 | 60.2 | 114 | 115 | 120 | 72.4 | 125 | 125 | 118 | 126 | 120 | 41.2 | 68.3
2 | OC(COC1=C2C(=O)\C=C(/OC2=CC=C1)C([O-])=O)COC3=C4C(=O)\C=C(/OC4=CC=C3)C([O-])=O | 84.8 | 80.9 | 87.4 | 79.2 | 90.7 | 77.2 | 88.4 | 90.1 | 92 | 86.7 | 90.4 | 98.9 | 94.9 | 97 | 94.2 | 103 | 89 | 87.3 | 89.3 | 86.9 | 83.2 | 89.5 | 75.3 | 78.4 | 84.8 | 82.1 | 83.1 | 76.7 | 81.4 | 87.8 | 73.4 | 81.3 | 80.3
3 | CCOC1=CC(=CC=C1C/2=N/[C@@](C)(C3=CC=C(Cl)C=C3)[C@](C)(N2C(=O)N4CCN(CC4)CC(=O)N5CCOCC5)C6=CC=C(Cl)C=C6)C(C)(C)C | 104 | 104 | 101 | 99.7 | 101 | 102 | 104 | 101 | 101 | 82.9 | 87.1 | 104 | 106 | 97.9 | 109 | 112 | 108 | 101 | 103 | 92.2 | 97.6 | 89.9 | 109 | 110 | 112 | 107 | 99.2 | 102 | 107 | 97.6 | 99.7 | 89.8 | 97.7
4 | CN[S+](=O)([O-])CCc1ccc2[nH]cc(C3CCN(C)CC3)c2c1 | 95.6 | 98.2 | 99.7 | 99.5 | 101 | 103 | 108 | 102 | 112 | 103 | 105 | 91.6 | 91.6 | 84.7 | 96 | 101 | 100 | 101 | 107 | 102 | 98 | 101 | 87.8 | 94.2 | 96.4 | 94.4 | 99.9 | 99 | 107 | 96.3 | 97.4 | 101 | 98.9
5 | OCCCNc1cc(-c2ccnc(Nc3cccc(Cl)c3)n2)ccn1 | 98 | 99.8 | 107 | 109 | 110 | 113 | 65.4 | 13.6 | 10.3 | 8.26 | 7.93 | 102 | 105 | 105 | 104 | 118 | 87.9 | 55.6 | 12.1 | 7.63 | 8.26 | 5.79 | 94.9 | 106 | 106 | 119 | 113 | 100 | 43.7 | 11.9 | 10.5 | 11 | 9.06
6 | Cc1cn(CCN2CCN(c3ccccc3-c3cc(C#N)cc(C(=O)NCCCN4CCCC4)c3)CC2)c2ccccc12 | 110 | 109 | 106 | 104 | 109 | 115 | 119 | 120 | 91.2 | 8.78 | 6.19 | 107 | 107 | 103 | 115 | 118 | 118 | 124 | 103 | 90.8 | 23.2 | 15.6 | 118 | 119 | 117 | 117 | 124 | 126 | 128 | 111 | 93 | 26.9 | 19.9
7 | Cc1ncc([N+](=O)[O-])n1CCO | 116 | 121 | 126 | 125 | 118 | 123 | 120 | 132 | 124 | 110 | 123 | 106 | 115 | 123 | 127 | 112 | 112 | 127 | 124 | 123 | 116 | 120 | 121 | 129 | 122 | 129 | 135 | 135 | 127 | 125 | 131 | 129 | 128
8 | COc1cc(N[S+](=O)([O-])c2ccc(N)cc2)nc(OC)n1 | 114 | 111 | 116 | 112 | 125 | 115 | 112 | 109 | 110 | 110 | 107 | 102 | 106 | 109 | 110 | 107 | 110 | 110 | 110 | 105 | 95.8 | 103 | 112 | 108 | 114 | 106 | 117 | 113 | 117 | 117 | 104 | 103 | 101
